The text below walks through data of US5591762A, “Benzimidazoles useful as angiotensin-11 antagonists” (Dr. Karl Thomae GmbH, priority 1991, dated 1997).

pIC50: −log10 of the molar value.

One test addresses T1, angiotensin II-receptor (Rattus norvegicus, UniProt P25095).
T1 construct: The tissue (rats lung ) is homogenised in Tris-buffer; from tissue; host or cells: rat lung homogenate (washed 20,000×g pellet)
T1 sequence (P25095 1-359): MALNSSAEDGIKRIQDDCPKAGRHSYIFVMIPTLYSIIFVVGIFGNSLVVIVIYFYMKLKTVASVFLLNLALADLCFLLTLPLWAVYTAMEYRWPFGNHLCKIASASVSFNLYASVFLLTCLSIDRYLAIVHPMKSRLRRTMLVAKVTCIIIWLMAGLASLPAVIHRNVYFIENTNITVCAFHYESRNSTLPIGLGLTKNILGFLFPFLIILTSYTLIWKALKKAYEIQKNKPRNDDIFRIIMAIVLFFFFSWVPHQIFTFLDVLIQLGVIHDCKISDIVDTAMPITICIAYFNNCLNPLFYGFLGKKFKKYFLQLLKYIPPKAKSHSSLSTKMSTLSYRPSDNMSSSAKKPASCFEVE
Description: Angiotensin II-receptor bonding (binding) with [125I]-angiotensin II on rat lung homogenate. To be noted: 50 pM [125I]-angiotensin II, 60 min at 37° C., pH 7.40. As to the method: DESCRIPTION OF METHOD: ANGIOTENSIN II-RECEPTOR BONDING
The tissue (rats lung ) is homogenised in Tris-buffer (50 mMol Tris, 150 mMol NaCl, 5 mMol EDTA, pH 7.40) and centrifuged twice for 20 minutes at 20,000×g. The finished pellets are resuspended in incubating buffer (50 mMol Tris, 5 mMol MgCl2, 0.2% BSA, pH 7.40) 1:75, based on the moist weight of the tissue. Each 0.1 ml of homogenate is incubated for 60 minutes at 37° C. with 50 pM [^125 I]-antiotensin II (NEN, Dreieich, FRG) with increasing concentrations of the test substance in a total volume of 0.25 ml. Incubation is ended by rapid filtration through glass fibre filter mats. The filters are each washed with 4 ml of ice cold buffer (25 mMol Tris, 2.5 mMol MgCl2, 0.1% BSA, pH 7.40). The bound radioactivity is measured using a gamma-counter. The corresponding IC50 value is obtained from the dose-activity curve.

The test system of test [1] is rat model of renovascular hypertension (2-kidney 1-clip rat). Description: Renovascular hypertension: blood pressure lowering in 2-kidney 1-clip rats (telemetry, oral). The test is classed as in vivo. To be noted: two times daily. An excerpt: DESCRIPTION OF METHOD: RENOVASCULAR HYPERTENSION
Blood pressure lowering effects of angiotensin-II antagonists were investigated in a rat model of renovascular hypertension. This model, the 2-kidney 1-clip rat, is characterized by an elevated renin activity (see J. Exper. Med. 59, 347-378 (1934), J. Applied Physiol. 31(1), 142-144 (1971) and Gross D. R. in "Animal Models in Cardiovascular Research: Animal Models of hypertension" Martinus Nijhoff Publishers (1985)). The compounds are given two times daily by oral administration to conscious freely moving rats which have been implanted with a chronic-use pressure transmitter to monitor blood pressure and heart rate continuously (PhysioTel® telemetry device).
Male rats (140-150 g) are anaesthetized with pentobarbitonesodium (50 mg/kg i.p.). The abdominal cavity is opened by a midline incision. A solid silver clip with an internal diameter of 0.20 mm is applied to the left renal artery as close as possible to the aorta. The contralateral kidney is not disturbed. The catheter of a pressure transmitter (TA11PA-C40) is inserted in the abdominal aorta and the transmitter fixed to abdominal musculature. The abdomen is closed with sutures. The animals are allowed to recover for several weeks and housed individually in cages.
After the implantation of the chronic-use device, blood pressure and heart rate are transmitted by telemetry and the signals are received by a RA 1010 General Purpose Receiver (Data Science Int.). Data are acquired with the Dataquest® IV 1.11 System on a Hewlett Packard Vectra ES/12 386 computer.
Compounds are dissolved in 1M HCl or 1M NaOH. To stabilize the solution β-cyclodextrin (1.8 g/v%) is added. The solutions (0.3 and 1 mg/kg/2 ml) are orally given by gavage at 10.00 a.m. and 4.00 p.m..

In test [2] the test system is conscious renally hypertensive rats. The test can be described thus: Hypotensive effect in conscious renally hypertensive rats after oral administration. The class given is in vivo, rat. To be noted: 10 mg/kg. As to the method:
In addition, compounds D, E, F, G, H, M and O were tested on conscious renally hypertensive rats for their effect after oral administration using methods known from the literature.

For orientation: pIC50 means the IC50 on a negative log10 scale, so that one unit is a factor of ten. On angiotensin II-receptor, `CCCc1nc2c(C)cc(-c3cn(CC(N)=O)cn3)cc2n1Cc1ccc(-c2ccccc2C(=O)O)cc1` [AA] had a pIC50 of 8.47.
`CCCc1nc2c(C)cc(-c3cn(CCCN(C)C)cn3)cc2n1Cc1ccc(-c2ccccc2C(=O)O)cc1` [BB] gave a pIC50 on angiotensin II-receptor of 8.89.
For the compound `CCCc1nc2c(C)cc(-c3nc4ccccc4n3C)cc2n1Cc1ccc(-c2ccccc2C(=O)O)cc1` [D], the results for the “Blood pressure lowering activity” value in test [1] (0.3 mg/kg) and in test [1] (1.0 mg/kg) were -37 mmHg and -68 mmHg, respectively. Besides, the hypotensive effect entry in test [2] is on record as “exhibited a hypotensive effect”.
Regarding `CCCc1nc2c(C)cc(-c3nc4ccccc4n3C)cc2n1Cc1ccc(-c2ccccc2-c2nn[nH]n2)cc1` [E], the “Blood pressure lowering activity” value is listed as -55 mmHg in test [1] (0.3 mg/kg) and -78 mmHg in test [1] (1.0 mg/kg). For the same compound, the hypotensive effect entry in test [2] is on record as “exhibited a hypotensive effect”.
Take `CCCc1nc2c(C)cc(N3Cc4ccccc4C3=O)cc2n1Cc1ccc(-c2ccccc2-c2nn[nH]n2)cc1` [F]: the hypotensive effect entry in test [2] is “exhibited a hypotensive effect”.
Regarding `CCCc1nc2c(C)cc(N3CCCCS3(=O)=O)cc2n1Cc1ccc(-c2ccccc2-c2nn[nH]n2)cc1` [G], the hypotensive effect entry in test [2] is on record as “exhibited a hypotensive effect”.
For the compound `CCCCc1nc2c(C)cc(N3C(=O)C(C)=C(C)C3=O)cc2n1Cc1ccc(-c2ccccc2C(=O)O)cc1` [H], the hypotensive effect result in test [2] is given as “exhibited a hypotensive effect”.
`Cc1cc(-c2nc3ccccc3n2C)cc2c1nc(C1CC1)n2Cc1ccc(-c2ccccc2C(=O)O)cc1` [M]: the hypotensive effect result in test [2] was “exhibited a hypotensive effect”.
On to `CCCc1nc2c(C)cc(-c3cn4cccnc4n3)cc2n1Cc1ccc(-c2ccccc2-c2nn[nH]n2)cc1` [O], for which the hypotensive effect entry in test [2] is reported as “exhibited a hypotensive effect”.
As for `CCCCc1nc2c(C)cc(-c3nc4ccccc4n3C)cc2n1Cc1ccc(-c2ccccc2-c2nnn[nH]2)cc1` [T], the “Blood pressure lowering activity” value in test [1] (0.3 mg/kg) was -24 mmHg.
As to `CCCc1nc2c(C)cc(-c3cn4ccccc4n3)cc2n1Cc1ccc(-c2ccccc2-c2nnn[nH]2)cc1` [U], in test [1] (1.0 mg/kg), the “Blood pressure lowering activity” value is recorded as -43 mmHg.
Compound `CCCc1nc2c(C)cc(-c3cn(C)cn3)cc2n1Cc1ccc(-c2ccccc2C(=O)O)cc1` [V] showed a pIC50 at angiotensin II-receptor of 8.92.
Consider `CCCc1nc2c(C)cc(-c3cn(C(C)C)cn3)cc2n1Cc1ccc(-c2ccccc2-c2nn[nH]n2)cc1` [W], for which the pIC50 on angiotensin II-receptor is 8.82.
On the same count and under the same terms, then `CCCc1nc2c(C)cc(-c3coc(C)n3)cc2n1Cc1ccc(-c2ccccc2C(=O)O)cc1` [X], with 7.40.
Compound `CCOc1nc2ccc(-c3cn(C(C)C)cn3)cc2n1Cc1ccc(-c2ccccc2C(=O)O)cc1` [Y] had a pIC50 at angiotensin II-receptor of 8.00.
The compound `CCCc1nc2c(C)cc(-c3cn(C4CCCCCC4)cn3)cc2n1Cc1ccc(-c2ccccc2C(=O)O)cc1` [Z] had a pIC50 at angiotensin II-receptor of 7.82.
